Patent US20240317780A1, “RADIOPHARMACEUTICAL SOMATOSTATIN RECEPTOR LIGANDS AND PRECURSORS THEREOF” (Technische Universität München, priority 2021, published 2024)
Like-named read-outs stand apart in the source and are kept apart here. Where a SMILES comes first, the peptide text is derived from it. Bridges are numbered along the chain shown (N, C = ends). [ ]: non-standard residue; d: D form. The star is where a group is joined. ξ: configuration not given here. Benzoyl(4-SiFtBu2) = CC(C)(C)[Si](F)(c1ccc(C(=O)*)cc1)C(C)(C)C; DO3AM = NC(=O)CN1CCN(CC(N)=O)CCN(CC(=O)*)CCN(CC(N)=O)CC1; ξW = NC(Cc1c[nH]c2ccccc12)C(=O)O; dDap = NC[C@@H](N)C(=O)O; ξF = NC(Cc1ccccc1)C(=O)O; ξD = NC(CC(=O)O)C(=O)O; ξDap = NCC(N)C(=O)O; ξC = NC(CS)C(=O)O

Legend:
[1] = target: T1, SST2 (Homo sapiens, UniProt P30874); experiment: Determination of IC50: competitive binding against [125I]TOC on SST2-transfected CHO cells; conditions: [125I]TOC reference radioligand, 60 min room temperature
T1 construct: expressed in transfected cells; host or cells: CHO (Chinese hamster ovary) cells
T1 sequence (P30874 whole entry, species assumed): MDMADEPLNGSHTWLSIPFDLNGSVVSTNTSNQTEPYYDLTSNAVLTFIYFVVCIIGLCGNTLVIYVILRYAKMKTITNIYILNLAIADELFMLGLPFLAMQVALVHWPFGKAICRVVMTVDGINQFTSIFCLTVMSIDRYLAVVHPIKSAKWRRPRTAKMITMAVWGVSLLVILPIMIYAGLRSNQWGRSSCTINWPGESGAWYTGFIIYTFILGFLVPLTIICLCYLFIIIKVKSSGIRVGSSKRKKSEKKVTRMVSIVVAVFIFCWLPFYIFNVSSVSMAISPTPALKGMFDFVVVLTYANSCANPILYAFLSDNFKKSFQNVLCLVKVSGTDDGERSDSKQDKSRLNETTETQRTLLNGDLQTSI

[2] = Biodistribution of 18F-labeled SST2 ligands in AR42J tumor-bearing mice; assay type: in vivo; conditions: female, CD1 nu/nu, mouse, iv, total radioactivity, 1 h post injection, tail vein
Experimental: All animal experiments were conducted in accordance with general animal welfare regulations in Germany and the institutional guidelines for the care and use of animals. To establish tumor xenografts, AR42J cells (5×10^6 cells/100 μL) were suspended in Dulbecco modified Eagle medium/Nutrition Mixture F-12 with Glutamax-1 (1:1) and inoculated subcutaneously onto the right shoulder of 8 weeks old, female CD1 nu/nu mice (Charles River, Sulzfeld, Germany). Mice were used for experiments when tumors had grown to a diameter of 5-9 mm (7-15 days after inoculation).
Approximately 0.5-2.0 MBq (0.05-0.25 nmol) of the ^18F-labeled SST2-ligands were injected into the tail vein of AR42J tumor-bearing female CD1 nu/nu mice and sacrificed after 1 h post injection (n=3-5). Selected organs were removed, weighted and measured in a γ-counter.
The Tables 4, 5, and 6 summarize the results of the in vivo mouse experiments. For all biodistribution studies, female CD1 nu/nu mice with AR42J tumor xenografts, were used and sacrificed 1 h post injection.

[3] = target: HSA (Homo sapiens, UniProt P02768); experiment: HSA binding by RIAC method (gel filtration, apparent molecular weight); assay type: in vitro ADME; conditions: HSA binding as apparent molecular weight, 700 μM HSA in PBS mobile phase
Chain of HSA (P02768 25-609): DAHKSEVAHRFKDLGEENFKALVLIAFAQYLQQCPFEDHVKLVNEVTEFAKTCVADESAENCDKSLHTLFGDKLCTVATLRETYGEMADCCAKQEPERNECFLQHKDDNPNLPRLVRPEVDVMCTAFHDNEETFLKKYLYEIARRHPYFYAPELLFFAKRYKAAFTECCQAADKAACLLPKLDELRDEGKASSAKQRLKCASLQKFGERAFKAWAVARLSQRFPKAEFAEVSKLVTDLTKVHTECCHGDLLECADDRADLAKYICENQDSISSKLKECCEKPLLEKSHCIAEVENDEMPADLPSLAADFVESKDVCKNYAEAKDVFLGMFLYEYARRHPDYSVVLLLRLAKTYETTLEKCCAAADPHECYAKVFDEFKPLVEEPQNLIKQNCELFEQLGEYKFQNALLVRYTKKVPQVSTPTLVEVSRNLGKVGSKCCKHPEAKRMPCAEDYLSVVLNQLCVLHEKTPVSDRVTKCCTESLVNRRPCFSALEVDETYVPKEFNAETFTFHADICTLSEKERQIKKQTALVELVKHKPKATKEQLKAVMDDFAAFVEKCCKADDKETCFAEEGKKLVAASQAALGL

[4] = Octanol-water distribution coefficient (logD pH 7.4) of the labeled tracer; assay type: physicochemical; conditions: n-octanol/PBS pH 7.4, room temperature
Outline: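 About 1 MBq tracer partitioned in 1:1 PBS pH 7.4/n-octanol, mixed 3 min at room temperature, centrifuged 15000 g for 5 min. Both layers counted by gamma counter; at least six repeats.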

## C[C@@H](O)[C@H](NC(=O)C1CSSCC(NC(=O)C(Cc2ccccc2)NC(=O)CNC(=O)CNC(=O)[C@@H](CC(=O)O)NC(=O)C(CC(=O)O)NC(=O)[C@@H](CNC(=O)CN2CCN(CC(N)=O)CCN(CC(N)=O)CCN(CC(N)=O)CC2)NC(=O)C(CN)NC(=O)c2ccc([Si](F)(C(C)(C)C)C(C)(C)C)cc2)C(=O)N[C@@H](Cc2ccc(O)cc2)C(=O)NC(Cc2c[nH]c3ccccc23)C(=O)N[C@@H](CCCCN)C(=O)N[C@@H]([C@@H](C)O)C(=O)N1)C(=O)O (stereo partly shown) [[Pb]36] ({Benzoyl(4-SiFtBu2)}-[ξDap][dDap](DO3AM)[ξD][dD]GG[ξF][ξC]Y[ξW]KT[ξC]T-OH; disulfide 8-13)
[1]
  IC50: 6.57 ± 0.32 nM
[2]; AR42J tumor, AR42J tumor, read-out: Tumor % ID/g ± SD
  tissue uptake at 1 h: 22.3 ± 3.85 %ID/g
[2]; adrenal glands, read-out: Adrenal glands % ID/g ± SD
  tissue uptake at 1 h: 2 ± 0.27 %ID/g
[2]; blood, read-out: Blood % ID/g ± SD
  tissue uptake at 1 h: 1.3 ± 0.21 %ID/g
[2]; bone, read-out: Bone % ID/g ± SD
  tissue uptake at 1 h: 3.38 ± 0.7 %ID/g
[2]; heart, read-out: Heart % ID/g ± SD
  tissue uptake at 1 h: 0.71 ± 0.09 %ID/g
[2]; intestine, read-out: Intestine % ID/g ± SD
  tissue uptake at 1 h: 1.31 ± 0.21 %ID/g
[2]; kidneys, read-out: Kidneys % ID/g ± SD
  tissue uptake at 1 h: 43 ± 6.22 %ID/g
[2]; liver, read-out: Liver % ID/g ± SD
  tissue uptake at 1 h: 8.47 ± 1.23 %ID/g
[2]; lung, read-out: Lung % ID/g ± SD
  tissue uptake at 1 h: 2.42 ± 0.5 %ID/g
[2]; muscle, read-out: Muscle % ID/g ± SD
  tissue uptake at 1 h: 0.47 ± 0.08 %ID/g
[2]; pancreas, read-out: Pancreas % ID/g ± SD
  tissue uptake at 1 h: 9.09 ± 1.79 %ID/g
[2]; spleen, read-out: Spleen % ID/g ± SD
  tissue uptake at 1 h: 0.84 ± 0.17 %ID/g
[2]; stomach, read-out: Stomach % ID/g ± SD
  tissue uptake at 1 h: 4.32 ± 0.81 %ID/g
[3]
  HSA: 20.22 kDa
[4]
  LogDpH=7.4: −1.82 ± 0.05
